Measured values published in PubChem BioAssay (NCI).
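The compound was tested at five concentrations on cells cultured in 96-well plates, with a 48-hour exposure period. Definition used: TGI = concentration required for complete inhibition of growth.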

Columns and labels:
Assay in all cases: NCI-60 cell line screen, 48 h
[1] = test system: 786-0 renal
[2] = test system: A549 NSCLC
[3] = test system: ACHN renal
[4] = test system: CCRF-CEM leukemia
[5] = test system: COLO 205 colon
[6] = test system: DLD-1 colon
[7] = test system: DMS 273 small cell lung
[8] = test system: EKVX NSCLC
[9] = test system: HCC-2998 colon
[10] = test system: HCT-116 colon
[11] = test system: HCT-15 colon
[12] = test system: HOP-62 NSCLC
[13] = test system: IGROV1 ovarian
[14] = test system: K-562 leukemia
[15] = test system: KM12 colon
[16] = test system: KM20L2 colon
[17] = test system: LOX IMVI melanoma
[18] = test system: LXFL 529 NSCLC
[19] = test system: M14 melanoma
[20] = test system: M19-MEL melanoma
[21] = test system: MALME-3M melanoma
[22] = test system: MOLT-4 leukemia
[23] = test system: NCI-H23 lung
[24] = test system: NCI-H460 lung
[25] = test system: NCI-H522 lung
[26] = test system: OVCAR-3 ovarian
[27] = test system: OVCAR-8 ovarian
[28] = test system: RPMI-8226 leukemia
[29] = test system: RXF 393 renal
[30] = test system: SF-268 CNS
[31] = test system: SF-295 CNS
[32] = test system: SF-539 CNS
[33] = test system: SK-MEL-28 melanoma
[34] = test system: SK-OV-3 ovarian
[35] = test system: SN12C renal
[36] = test system: SNB-19 CNS
[37] = test system: SNB-75 CNS
[38] = test system: SNB-78 CNS
[39] = test system: SR leukemia
[40] = test system: SW-620 colon
[41] = test system: TK-10 renal
[42] = test system: U251 CNS
[43] = test system: UACC-257 melanoma
[44] = test system: UACC-62 melanoma
[45] = test system: UO-31 renal
[46] = test system: A498 renal
[47] = test system: CAKI-1 renal
[48] = test system: DMS 114 small cell lung
[49] = test system: HL-60(TB) leukemia
[50] = test system: HOP-92 NSCLC
[51] = test system: HT29 colon
[52] = test system: NCI-H226 lung
[53] = test system: OVCAR-4 ovarian
[54] = test system: OVCAR-5 ovarian
[55] = test system: RXF-631 renal
[56] = test system: SK-MEL-2 melanoma
[57] = test system: SK-MEL-5 melanoma
[58] = test system: XF 498 CNS

C[C@]12CC[C@@H]3c4ccccc4CC[C@H]3[C@@H]1CC[C@@H]2O
TGI [1]: > 100 µM
TGI [2]: > 100 µM
TGI [3]: > 100 µM
TGI [4]: > 100 µM
TGI [5]: > 100 µM
TGI [6]: > 100 µM
TGI [7]: > 100 µM
TGI [8]: > 100 µM
TGI [9]: > 100 µM
TGI [10]: > 100 µM
TGI [11]: > 100 µM
TGI [12]: > 100 µM
TGI [13]: > 100 µM
TGI [14]: > 100 µM
TGI [15]: > 100 µM
TGI [16]: > 100 µM
TGI [17]: > 100 µM
TGI [18]: > 100 µM
TGI [19]: > 100 µM
TGI [20]: > 100 µM
TGI [21]: > 100 µM
TGI [22]: > 100 µM
TGI [23]: > 100 µM
TGI [24]: > 100 µM
TGI [25]: > 100 µM
TGI [26]: > 100 µM
TGI [27]: > 100 µM
TGI [28]: > 100 µM
TGI [29]: > 100 µM
TGI [30]: > 100 µM
TGI [31]: > 100 µM
TGI [32]: > 100 µM
TGI [33]: > 100 µM
TGI [34]: > 100 µM
TGI [35]: > 100 µM
TGI [36]: > 100 µM
TGI [37]: > 100 µM
TGI [38]: > 100 µM
TGI [39]: > 100 µM
TGI [40]: > 100 µM
TGI [41]: > 100 µM
TGI [42]: > 100 µM
TGI [43]: > 100 µM
TGI [44]: > 100 µM
TGI [45]: > 100 µM

COC(=O)C1(C(=O)OC)CC2c3c(c4ccccc4n3C)CC(C1=O)N2Cc1ccccc1 (configuration not stated)
TGI [1]: > 100 µM
TGI [46]: > 100 µM
TGI [2]: > 100 µM
TGI [3]: > 100 µM
TGI [47]: > 100 µM
TGI [4]: > 100 µM
TGI [5]: > 100 µM
TGI [6]: > 100 µM
TGI [48]: > 100 µM
TGI [7]: > 100 µM
TGI [8]: > 100 µM
TGI [9]: > 100 µM
TGI [10]: > 100 µM
TGI [11]: > 100 µM
TGI [49]: > 100 µM
TGI [12]: > 100 µM
TGI [50]: > 100 µM
TGI [51]: > 100 µM
TGI [13]: > 100 µM
TGI [14]: > 100 µM
TGI [15]: > 100 µM
TGI [16]: > 100 µM
TGI [17]: > 100 µM
TGI [18]: > 100 µM
TGI [19]: > 100 µM
TGI [20]: > 100 µM
TGI [21]: > 100 µM
TGI [22]: > 100 µM
TGI [52]: > 100 µM
TGI [23]: > 100 µM
TGI [24]: > 100 µM
TGI [25]: > 100 µM
TGI [26]: > 100 µM
TGI [53]: > 100 µM
TGI [54]: > 100 µM
TGI [27]: > 100 µM
TGI [28]: > 100 µM
TGI [29]: > 100 µM
TGI [55]: > 100 µM
TGI [30]: > 100 µM
TGI [31]: > 100 µM
TGI [32]: > 100 µM
TGI [56]: > 100 µM
TGI [33]: > 100 µM
TGI [57]: > 100 µM
TGI [34]: > 100 µM
TGI [35]: > 100 µM
TGI [36]: > 100 µM
TGI [37]: 92 µM
TGI [38]: > 100 µM
TGI [40]: > 100 µM
TGI [41]: > 100 µM
TGI [42]: > 100 µM
TGI [43]: > 100 µM
TGI [44]: > 100 µM
TGI [45]: > 100 µM
TGI [58]: > 100 µM
